Test results as given in patent US20230219904A1 (SYNGENTA CROP PROTECTION AG, priority 2020, published 2023).

Tests used:
Type in all cases: in vivo
Settings in all cases: evaluated after 13 days
[1] = system: Echinochloa crus-galh (ECHCG); test: Pre-emergence herbicidal glasshouse test (Table B1)
Summary of the method: (§1)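 Pre: spray 1 d after sowing; post: spray after 8 d growth. Rate 500 g/h (default); vehicle acetone/water 50:50, 0.5% Tween 20. Glasshouse 24/16° C, 14 h light, 65% humidity. Readout % damage at 13 d, 5-point scale.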

[2] = system: Ipomoea hederacea (IPOHE); test: as above
Summary of the method: as §1

Setaria faberi (SETFA) [3] = test: as above
Summary of the method: as §1

[4] = system: Amaranthus retoflexus (AMARE); test: as above
Summary of the method: as §1

[5] = system: Abutilon theophrasti (ABUTH); test: as above
Summary of the method: as §1

[6] = system: Echinochloa crus-galh (ECHCG); test: Post-emergence herbicidal glasshouse test (Table B1)
Summary of the method: as §1

[7] = system: Ipomoea hederacea (IPOHE); test: as above
Summary of the method: as §1

Setaria faberi (SETFA) [8] = test: as above
Summary of the method: as §1

[9] = system: Amaranthus retoflexus (AMARE); test: as above
Summary of the method: as §1

[10] = system: Abutilon theophrasti (ABUTH); test: as above
Summary of the method: as §1

SMILES	PRE Application ECHCG, percentage damage on five-point scale ([1]; applied at 125 g/ha)	PRE Application IPOHE, percentage damage on five-point scale ([2]; applied at 125 g/ha)	PRE Application SETFA, percentage damage on five-point scale (Setaria faberi (SETFA) [3]; applied at 125 g/ha)	PRE Application AMARE, percentage damage on five-point scale ([4]; applied at 125 g/ha)	PRE Application ABUTH, percentage damage on five-point scale ([5]; applied at 125 g/ha)	POST Application ECHCG, percentage damage on five-point scale ([6]; applied at 125 g/ha)	POST Application IPOHE, percentage damage on five-point scale ([7]; applied at 125 g/ha)	POST Application SETFA, percentage damage on five-point scale (Setaria faberi (SETFA) [8]; applied at 125 g/ha)	POST Application AMARE, percentage damage on five-point scale ([9]; applied at 125 g/ha)	POST Application ABUTH, percentage damage on five-point scale ([10]; applied at 125 g/ha)	PRE Application ECHCG, percentage damage on five-point scale ([1]; applied at 500 g/h)	PRE Application IPOHE, percentage damage on five-point scale ([2]; applied)	PRE Application SETFA, percentage damage on five-point scale (Setaria faberi (SETFA) [3]; applied at 500 g/h)	PRE Application AMARE, percentage damage on five-point scale ([4]; applied at 500 g/h)	PRE Application ABUTH, percentage damage on five-point scale ([5]; applied at 500 g/h)	POST Application ECHCG, percentage damage on five-point scale ([6]; applied at 500 g/h)	POST Application IPOHE, percentage damage on five-point scale ([7]; applied at 500 g/h)	POST Application SETFA, percentage damage on five-point scale (Setaria faberi (SETFA) [8]; applied at 500 g/h)	POST Application AMARE, percentage damage on five-point scale ([9]; applied at 500 g/h)	POST Application ABUTH, percentage damage on five-point scale ([10]; applied at 500 g/h)
CCn1nnnc1NC(=O)c1ccc(OC(F)(F)F)c(NC(=O)C(F)F)c1Cl [Compound 1.122]	4 (4=60-79%)	1 (1=0-19%)	3 (3=40-59%)	5 (5=80-100%)	3 (3=40-59%)	4 (4=60-79%)	2 (2=20-39%)	3 (3=40-59%)	5 (5=80-100%)	4 (4=60-79%)										
CCn1nnnc1NC(=O)c1ccc(OC(F)(F)F)c(NC(=O)c2ccccc2OC)c1Cl [Compound 1.123]	3 (3=40-59%)	2 (2=20-39%)	4 (4=60-79%)	3 (3=40-59%)	3 (3=40-59%)	4 (4=60-79%)	5 (5=80-100%)	4 (4=60-79%)	4 (4=60-79%)	4 (4=60-79%)										
CC(C)C(=O)Nc1c(OC(F)(F)F)ccc(C(=O)Nc2nnnn2C)c1Cl [Compound 1.124]											5 (5=80-100%)	1 (1=0-19%)	4 (4=60-79%)	5 (5=80-100%)	4 (4=60-79%)	5 (5=80-100%)	5 (5=80-100%)	5 (5=80-100%)	5 (5=80-100%)	5 (5=80-100%)
COC(C)(C)C(=O)Nc1c(OC(F)(F)F)ccc(C(=O)Nc2nnnn2C)c1Cl [Compound 1.125]											5 (5=80-100%)	4 (4=60-79%)	1 (1=0-19%)	5 (5=80-100%)	5 (5=80-100%)	5 (5=80-100%)	5 (5=80-100%)	5 (5=80-100%)	5 (5=80-100%)	5 (5=80-100%)
CCC(=O)Nc1c(OC(F)F)ccc(C(=O)Nc2nnnn2C)c1C [Compound 1.126]	5 (5=80-100%)	3 (3=40-59%)	2 (2=20-39%)	5 (5=80-100%)	5 (5=80-100%)	5 (5=80-100%)	4 (4=60-79%)	5 (5=80-100%)	5 (5=80-100%)	5 (5=80-100%)										
CCn1nnnc1NC(=O)c1ccc(OC(F)(F)F)c(NC(=O)C(C)F)c1Cl (stereo not shown) [Compound 1.127]											5 (5=80-100%)	2 (2=20-39%)	3 (3=40-59%)	5 (5=80-100%)	5 (5=80-100%)	5 (5=80-100%)	5 (5=80-100%)	5 (5=80-100%)	5 (5=80-100%)	5 (5=80-100%)
CCn1nnnc1NC(=O)c1ccc(OC(F)(F)F)c(NC(=O)c2ccccn2)c1Cl [Compound 1.128]											3 (3=40-59%)	1 (1=0-19%)	1 (1=0-19%)	5 (5=80-100%)	4 (4=60-79%)	5 (5=80-100%)	5 (5=80-100%)	5 (5=80-100%)	5 (5=80-100%)	5 (5=80-100%)
CCCn1nnnc1NC(=O)c1ccc(OC(F)(F)F)c(NC(C)=O)c1Cl [Compound 1.129]											4 (4=60-79%)	2 (2=20-39%)	1 (1=0-19%)	5 (5=80-100%)	5 (5=80-100%)	5 (5=80-100%)	5 (5=80-100%)	5 (5=80-100%)	5 (5=80-100%)	5 (5=80-100%)
COCC(=O)Nc1c(OC(F)(F)F)ccc(C(=O)Nc2nnnn2C)c1Cl [Compound 1.130]											2 (2=20-39%)	1 (1=0-19%)	1 (1=0-19%)	5 (5=80-100%)	4 (4=60-79%)	5 (5=80-100%)	4 (4=60-79%)	5 (5=80-100%)	5 (5=80-100%)	5 (5=80-100%)
CCn1nnnc1NC(=O)c1ccc(OC(F)F)c(NC(=O)CC2CC2)c1Cl [Compound 1.131]											3 (3=40-59%)	1 (1=0-19%)	1 (1=0-19%)	5 (5=80-100%)	5 (5=80-100%)	5 (5=80-100%)	5 (5=80-100%)	4 (4=60-79%)	5 (5=80-100%)	5 (5=80-100%)
